Common to all, as to assay type: cell-based
For test [1], the target named is T1, human TLR9 (Homo sapiens, UniProt Q9NR96).
T1 construct: host or cells: HEK-Blue cells
T1 sequence (Q9NR96 26-1032): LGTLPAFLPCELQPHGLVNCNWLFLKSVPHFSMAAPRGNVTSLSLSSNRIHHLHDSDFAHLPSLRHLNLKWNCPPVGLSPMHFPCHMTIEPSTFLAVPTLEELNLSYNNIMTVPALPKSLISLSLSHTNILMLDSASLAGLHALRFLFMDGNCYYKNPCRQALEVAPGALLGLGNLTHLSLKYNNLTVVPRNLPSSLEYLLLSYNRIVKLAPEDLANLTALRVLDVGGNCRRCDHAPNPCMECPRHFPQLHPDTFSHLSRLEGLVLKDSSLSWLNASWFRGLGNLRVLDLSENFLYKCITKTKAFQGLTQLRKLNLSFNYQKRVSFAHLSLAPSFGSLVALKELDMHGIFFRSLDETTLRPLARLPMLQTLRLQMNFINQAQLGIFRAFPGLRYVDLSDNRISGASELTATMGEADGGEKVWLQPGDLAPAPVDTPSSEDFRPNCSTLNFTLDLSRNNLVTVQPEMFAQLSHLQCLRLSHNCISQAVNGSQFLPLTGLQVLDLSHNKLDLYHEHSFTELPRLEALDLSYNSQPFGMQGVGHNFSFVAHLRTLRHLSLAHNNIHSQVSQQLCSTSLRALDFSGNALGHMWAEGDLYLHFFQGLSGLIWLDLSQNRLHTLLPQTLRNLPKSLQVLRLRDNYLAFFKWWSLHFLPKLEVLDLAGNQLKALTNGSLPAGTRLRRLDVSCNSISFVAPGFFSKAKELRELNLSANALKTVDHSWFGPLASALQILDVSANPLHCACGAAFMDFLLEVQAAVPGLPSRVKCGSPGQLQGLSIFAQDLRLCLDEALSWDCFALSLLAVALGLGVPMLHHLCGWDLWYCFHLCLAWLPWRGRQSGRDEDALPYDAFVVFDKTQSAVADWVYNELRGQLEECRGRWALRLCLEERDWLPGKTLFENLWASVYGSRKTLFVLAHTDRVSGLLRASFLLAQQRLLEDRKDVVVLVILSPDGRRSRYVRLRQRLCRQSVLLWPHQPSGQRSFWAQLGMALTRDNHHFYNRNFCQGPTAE
The experiment in a line: TLR9 inhibition reporter assay (HEK-Blue SEAP). To be noted: cells overexpressing human TLR9, SEAP reporter, stimulated with ODN2006 5 nM, 22 hour incubation. An outline of the steps:
(§1)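 HEK-Blue cells expressing human TLR7, TLR8 or TLR9 with NF-κB/AP-1-driven SEAP reporter pre-treated 30 min at room temperature with compound (0.05 nM–50 μM), then stimulated with gardiquimod 7.5 μM (TLR7), R848 15.9 μM (TLR8) or ODN2006 5 nM (TLR9). SEAP read after 22 h at 37 °C; % inhibition relative to agonist+DMSO and reference-inhibitor wells.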

The target in test [2] is T2, human TLR7 (Homo sapiens, UniProt Q9NYK1).
T2 construct: host or cells: HEK-Blue cells
T2 sequence (Q9NYK1 27-1049): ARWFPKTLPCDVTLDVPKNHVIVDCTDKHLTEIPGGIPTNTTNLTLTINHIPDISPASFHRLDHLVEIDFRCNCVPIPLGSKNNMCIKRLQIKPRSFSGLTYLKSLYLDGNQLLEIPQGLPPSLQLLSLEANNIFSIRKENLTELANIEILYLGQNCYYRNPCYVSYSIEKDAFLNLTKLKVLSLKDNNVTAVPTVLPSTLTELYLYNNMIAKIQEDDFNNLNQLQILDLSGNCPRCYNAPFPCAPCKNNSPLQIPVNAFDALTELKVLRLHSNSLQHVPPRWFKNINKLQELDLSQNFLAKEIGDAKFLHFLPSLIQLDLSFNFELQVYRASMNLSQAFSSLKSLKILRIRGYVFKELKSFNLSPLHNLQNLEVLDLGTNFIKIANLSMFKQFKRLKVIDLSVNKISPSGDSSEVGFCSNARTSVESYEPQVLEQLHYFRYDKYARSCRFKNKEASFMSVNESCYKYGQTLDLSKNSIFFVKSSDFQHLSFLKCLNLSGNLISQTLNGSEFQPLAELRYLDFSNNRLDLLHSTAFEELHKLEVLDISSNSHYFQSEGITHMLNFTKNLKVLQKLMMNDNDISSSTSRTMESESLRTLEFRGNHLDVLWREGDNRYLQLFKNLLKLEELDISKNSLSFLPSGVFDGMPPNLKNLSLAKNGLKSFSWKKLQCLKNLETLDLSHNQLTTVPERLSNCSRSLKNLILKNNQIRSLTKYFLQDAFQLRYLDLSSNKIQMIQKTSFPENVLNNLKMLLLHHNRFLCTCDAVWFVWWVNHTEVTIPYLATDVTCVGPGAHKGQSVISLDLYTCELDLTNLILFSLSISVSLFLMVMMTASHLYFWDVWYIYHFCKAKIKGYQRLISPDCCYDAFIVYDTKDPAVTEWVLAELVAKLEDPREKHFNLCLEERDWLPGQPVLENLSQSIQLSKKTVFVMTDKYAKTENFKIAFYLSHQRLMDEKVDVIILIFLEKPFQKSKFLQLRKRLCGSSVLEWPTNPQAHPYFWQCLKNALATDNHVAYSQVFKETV
Description: TLR7 inhibition reporter assay (HEK-Blue SEAP). To be noted: cells overexpressing human TLR7, SEAP reporter, stimulated with gardiquimod 7.5 μM, 22 hour incubation. In short, it runs like this: as §1

In test [3] the target is T3, human TLR8 (Homo sapiens, UniProt Q9NR97).
T3 construct: host or cells: HEK-Blue cells
T3 sequence (Q9NR97 27-1041): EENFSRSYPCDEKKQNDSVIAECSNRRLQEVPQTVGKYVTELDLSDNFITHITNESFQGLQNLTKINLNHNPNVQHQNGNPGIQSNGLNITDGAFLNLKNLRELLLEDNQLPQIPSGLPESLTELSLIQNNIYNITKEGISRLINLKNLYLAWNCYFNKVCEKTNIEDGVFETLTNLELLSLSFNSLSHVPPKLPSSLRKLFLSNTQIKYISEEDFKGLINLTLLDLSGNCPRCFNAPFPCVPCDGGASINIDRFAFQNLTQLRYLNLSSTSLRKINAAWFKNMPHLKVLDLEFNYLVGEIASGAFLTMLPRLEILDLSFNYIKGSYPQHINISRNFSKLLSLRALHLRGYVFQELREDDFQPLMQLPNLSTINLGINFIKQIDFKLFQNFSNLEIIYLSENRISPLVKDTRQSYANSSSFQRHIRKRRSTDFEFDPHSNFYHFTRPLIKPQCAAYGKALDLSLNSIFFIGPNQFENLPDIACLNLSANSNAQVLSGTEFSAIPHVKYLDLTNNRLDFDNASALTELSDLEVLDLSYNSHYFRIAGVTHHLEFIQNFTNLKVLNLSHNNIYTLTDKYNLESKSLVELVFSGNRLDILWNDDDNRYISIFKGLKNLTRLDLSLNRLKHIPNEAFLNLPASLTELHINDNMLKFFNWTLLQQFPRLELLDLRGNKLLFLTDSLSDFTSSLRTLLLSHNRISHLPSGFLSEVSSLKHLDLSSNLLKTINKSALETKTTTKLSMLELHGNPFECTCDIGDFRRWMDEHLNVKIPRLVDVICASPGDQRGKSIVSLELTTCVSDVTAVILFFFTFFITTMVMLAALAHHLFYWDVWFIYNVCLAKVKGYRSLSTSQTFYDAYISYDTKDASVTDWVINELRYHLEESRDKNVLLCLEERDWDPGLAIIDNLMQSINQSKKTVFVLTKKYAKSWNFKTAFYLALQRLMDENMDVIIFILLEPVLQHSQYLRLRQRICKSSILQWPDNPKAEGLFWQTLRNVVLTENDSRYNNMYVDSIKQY
The experiment in a line: TLR8 inhibition reporter assay (HEK-Blue SEAP). The note with it: cells overexpressing human TLR8, SEAP reporter, stimulated with R848 15.9 μM, 22 hour incubation. An outline of the steps:
as §1

Consider `CCc1c(-c2ccc(OC)c(OC)c2)[nH]c2cnc(-c3nnc(C[C@@H]4CCCCN4)o3)nc12` [Example 46, (S)-2-(6-(3,4-dimethoxyphenyl)-7-ethyl-5H-pyrrolo[3,2-d]pyrimidin-2-yl)-5-(piperidin-2-ylmethyl)-1,3,4-oxadiazole], for which the IC50 in test [1] is 1 to 50 µM; in test [2], 1 to 50 µM; in test [3] it was 0.1 to 1 µM.
As to `CCc1c(-c2ccc(OC)c(OC)c2)[nH]c2cnc(-c3nnc(C[C@H]4CCCN4)o3)nc12` [Example 47, (R)-2-(6-(3,4-dimethoxyphenyl)-7-ethyl-5H-pyrrolo[3,2-d]pyrimidin-2-yl)-5-(pyrrolidin-2-ylmethyl)-1,3,4-oxadiazole], the IC50 in test [1] lay in the range of 1 to 50 µM; in test [2] it was 1 to 50 µM; in test [3] it was 0.1 to 1 µM.
For the molecule `CCc1c(-c2ccc(OC)c(OC)c2)[nH]c2cnc(-c3nnc(CCN(C)C)o3)nc12` [Example 48, 2-(5-(6-(3,4-dimethoxyphenyl)-7-ethyl-5H-pyrrolo[3,2-d]pyrimidin-2-yl)-1,3,4-oxadiazol-2-yl)-N,N-dimethylethan-1-amine], the IC50 in test [1] fell in the range of 1 to 50 µM; in test [2] it was 1 to 50 µM; in test [3], 0.1 to 1 µM.
As to `CCc1c(-c2ccc(OC)c(OC)c2)[nH]c2cnc(C3CCN(CC(=O)N(C)C)CC3)nc12` [Example 49], the IC50 is 1 to 50 µM in test [1], 0.1 to 1 µM in test [2] and less than 0.1 µM in test [3].
Take `CCc1c(-c2ccc(OC)c(OC)c2)[nH]c2cnc(C3CCN(CC(=O)NC)CC3)nc12` [Example 50]: the IC50 in test [1] is 1 to 50 µM; in test [2], 0.1 to 1 µM; in test [3] it was 0.1 to 1 µM.
As to `CCc1c(-c2ccc(OC)c(OC)c2)[nH]c2cnc(C3CCN(Cc4c[nH]cn4)CC3)nc12` [Example 51, 2-(1-((1H-imidazol-4-yl)methyl)piperidin-4-yl)-6-(3,4-dimethoxyphenyl)-7-ethyl-5H-pyrrolo[3,2-d]pyrimidine], the figures for the IC50 in test [1], in test [2] and in test [3] were 1 to 50 µM, 0.1 to 1 µM and 0.1 to 1 µM, respectively.
Take `CCc1c(-c2ccc(OC)c(OC)c2)[nH]c2cnc(C3CCN(Cc4nc(C)c[nH]4)CC3)nc12` [Example 52, 6-(3,4-dimethoxyphenyl)-7-ethyl-2-(1-((4-methy 1H-imidazol-2-yl)methyl)piperidin-4-yl)-5H-pyrrolo[3,2-d]pyrimidine]: the IC50 in test [1] is 1 to 50 µM; in test [2], 0.1 to 1 µM; in test [3], less than 0.1 µM.
As for `CCc1c(-c2ccc(OC)c(OC)c2)[nH]c2cnc(-c3nnc(N)o3)nc12` [Example 53, 5-(6-(3,4-dimethoxyphenyl)-7-ethyl-5H-pyrrolo[3,2-d]pyrimidin-2-yl)-1,3,4-oxadiazol-2-amine], the IC50 in test [1] is more than 50 µM; in test [2] it was more than 50 µM; in test [3] it was 1 to 50 µM.
Consider `CCc1c(-c2ccc(OC)c(OC)c2)[nH]c2cnc(C(=O)N3CC4CNCC4C3)nc12` (stereo not drawn) [Example 55, (6-(3,4-dimethoxyphenyl)-7-ethyl-5H-pyrrolo[3,2-d]pyrimidin-2-yl)(hexahydropyrrolo[3,4-c]pyrrol-2(1H)-yl)methanone], for which the IC50 in test [1], in test [2] and in test [3] was 1 to 50 µM each time.
As for `CCc1c(-c2ccc(OC)c(OC)c2)[nH]c2cnc(C(=O)NC3CCN(C(C)C)CC3)nc12` [Example 56, 6-(3,4-diunethoxyphenyl)-7-ethyl-N-(1-isopropylpiperidin-4-yl)-5H-pyrrolo[3,2-d]pyrimidine-2-carboxamide], the IC50 in test [1] was more than 50 µM; in test [2], 1 to 50 µM; in test [3] it was 1 to 50 µM.
Consider `COc1cc(-c2[nH]c3cnc(C4CCN(CC#N)CC4)nc3c2C(C)C)cn2ncnc12` [Example 59], for which the IC50 in test [1] is 0.1 to 1 µM; in test [2], less than 0.1 µM; in test [3], less than 0.1 µM.

The record behind these values is patent publication US11299501B2 (BRISTOL-MYERS SQUIBB COMPANY, priority 2017, dated 2022).
